# According to ChEMBL document CHEMBL1131706, “S1319: a novel beta2-andrenoceptor agonist from a marine sponge Dysidea sp” (Bioorg Med Chem Lett, 1999):
# What was measured:
# [1] = species: Cavia porcellus; test: Compound was tested for the ability to relax histamine induced contraction of isolated trachea; type: functional
# [2] = target: Beta-1 adrenergic receptor (Homo sapiens, UniProt P08588)
# Description: Compound was tested for its binding affinity to human Beta-1 adrenergic receptor by using the radioligand [3H]CGP-12177
# [3] = target: Beta-2 adrenergic receptor (Homo sapiens, UniProt P07550)
# Beta-2 adrenergic receptor, sequence (P07550 whole entry): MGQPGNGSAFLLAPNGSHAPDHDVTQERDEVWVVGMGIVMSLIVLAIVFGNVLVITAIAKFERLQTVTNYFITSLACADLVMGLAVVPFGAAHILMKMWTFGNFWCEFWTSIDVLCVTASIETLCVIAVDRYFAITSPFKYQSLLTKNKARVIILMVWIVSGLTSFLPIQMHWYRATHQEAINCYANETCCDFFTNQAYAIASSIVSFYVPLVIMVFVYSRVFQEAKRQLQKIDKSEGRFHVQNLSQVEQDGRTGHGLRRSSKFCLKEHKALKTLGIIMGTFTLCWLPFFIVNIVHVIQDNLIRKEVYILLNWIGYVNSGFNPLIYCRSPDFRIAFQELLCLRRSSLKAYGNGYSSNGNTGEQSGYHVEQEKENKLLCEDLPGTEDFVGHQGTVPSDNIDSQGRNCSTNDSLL
# Description: Compound was tested for its binding affinity to human Beta-2 adrenergic receptor by using the radioligand [3H]CGP-12177
# Beta-1 adrenergic receptor, sequence (P08588 whole entry): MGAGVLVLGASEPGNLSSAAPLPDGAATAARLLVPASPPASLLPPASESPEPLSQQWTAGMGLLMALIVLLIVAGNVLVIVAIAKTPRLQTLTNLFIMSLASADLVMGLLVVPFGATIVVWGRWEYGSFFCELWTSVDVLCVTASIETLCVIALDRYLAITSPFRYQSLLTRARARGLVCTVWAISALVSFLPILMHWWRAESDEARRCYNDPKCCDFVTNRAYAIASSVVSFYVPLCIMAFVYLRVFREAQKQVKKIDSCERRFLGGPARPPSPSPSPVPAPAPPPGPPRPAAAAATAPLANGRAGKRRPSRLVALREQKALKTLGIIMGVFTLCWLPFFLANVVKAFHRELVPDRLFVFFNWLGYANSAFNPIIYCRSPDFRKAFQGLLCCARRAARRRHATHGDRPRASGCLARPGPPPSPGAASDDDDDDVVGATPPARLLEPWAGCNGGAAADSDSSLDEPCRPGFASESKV
Structure (SMILES),pD2 [1],Kd [2] [nM],Kd [3] [nM]
CNCC(O)c1ccc(O)c2nc(O)sc12 (centres undefined),10.6,120,51
CNCC(O)c1ccc(OC)c2c1sc(=O)n2C (centres undefined),7.08,,
